Assay results as given in US11945801B2, “Bicyclic aza compounds as muscarinic M1 and/or M4 receptor agonists” (Heptares Therapeutics Limited, priority 2018, dated 2024).
Where two headings read alike, the source gives them in different places.

How the values were obtained:
[1] = target: T1, human muscarinic M1 receptor (Homo sapiens, UniProt P11229); assay: Alphascreen Surefire phospho-ERK1/2 functional assay, M1; type: cell-based; conditions: for EC50: agonist 5 min, 37° C.; for Emax: CHO
T1 sequence (P11229 1-460): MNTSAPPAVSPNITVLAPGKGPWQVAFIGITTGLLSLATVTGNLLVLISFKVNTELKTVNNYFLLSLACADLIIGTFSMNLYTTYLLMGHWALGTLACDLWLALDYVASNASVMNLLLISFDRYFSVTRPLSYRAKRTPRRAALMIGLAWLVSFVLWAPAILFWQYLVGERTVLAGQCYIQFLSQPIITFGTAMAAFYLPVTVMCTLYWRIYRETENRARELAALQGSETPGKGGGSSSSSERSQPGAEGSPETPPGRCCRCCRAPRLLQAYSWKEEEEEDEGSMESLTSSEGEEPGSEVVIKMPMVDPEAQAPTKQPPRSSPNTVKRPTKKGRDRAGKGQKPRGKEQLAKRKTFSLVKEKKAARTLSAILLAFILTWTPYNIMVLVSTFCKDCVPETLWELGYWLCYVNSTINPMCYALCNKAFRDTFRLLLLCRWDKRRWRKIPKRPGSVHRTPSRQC
Protocol: (§1) ERK1/2 phosphorylation is a downstream consequence of both Gq/11 and Gi/o protein coupled receptor activation, making it highly suitable for the assessment of M1, M3 (Gq/11 coupled) and M2, M4 receptors (Gi/o coupled), rather than using different assay formats for different receptor subtypes. CHO cells stably expressing the human muscarinic M1, M2, M3 or M4 receptor were plated (25K/well) onto 96-well tissue culture plates in MEM-alpha+10% dialysed FBS. Once adhered, cells were serum-starved overnight. Agonist stimulation was performed by the addition of 5 μL agonist to the cells for 5 min (37° C.). Media was removed and 50 μL of lysis buffer added. After […], a 4 μL sample was transferred to 384-well plate and 7 μL of detection mixture added.
(§2) Isomer assignment (Isomer 1, Isomer 2, etc.) is based on the retention time of the compound using the separation technique that was performed in the final purification step. By implication, this could be reversed phase HPLC, chiral HPLC or chiral SFC retention time, and this will vary from compound to compound.

[2] = target: T2, human muscarinic M4 receptor (Homo sapiens, UniProt P08173); assay: Alphascreen Surefire phospho-ERK1/2 functional assay, M4; type: cell-based; conditions: for EC50 / % Emax cf. ACh, M4: CHO cells stably expressing human M4; for EC50: agonist 5 min, 37° C., read-out: pEC50 M4 (converted); for Emax: CHO
T2 construct: expressed in transfected cells
T2 sequence (P08173 1-479): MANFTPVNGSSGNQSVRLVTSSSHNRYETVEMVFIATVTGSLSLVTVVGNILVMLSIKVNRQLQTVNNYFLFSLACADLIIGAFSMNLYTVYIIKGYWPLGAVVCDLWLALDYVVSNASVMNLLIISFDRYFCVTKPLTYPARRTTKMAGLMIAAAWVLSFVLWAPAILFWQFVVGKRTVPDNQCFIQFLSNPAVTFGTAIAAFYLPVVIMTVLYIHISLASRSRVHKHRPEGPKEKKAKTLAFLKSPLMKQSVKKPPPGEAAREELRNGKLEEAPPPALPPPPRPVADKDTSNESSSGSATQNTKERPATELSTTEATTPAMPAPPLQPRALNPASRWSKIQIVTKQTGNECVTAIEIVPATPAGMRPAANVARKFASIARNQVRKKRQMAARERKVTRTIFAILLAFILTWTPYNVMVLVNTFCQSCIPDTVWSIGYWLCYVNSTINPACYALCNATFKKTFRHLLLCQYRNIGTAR
Protocol: as §1, §2

[3] = CHO cells stably expressing human M1, read-out: pEC50 M1 (converted)
[4] = read-out: % Emax cf. ACh, M1, CHO cells stably expressing human M1, Emax relative to ACh
[5] = read-out: % Emax cf. ACh, M4, CHO cells stably expressing human M4, Emax relative to ACh

Compound	EC50 [1, 3] [nM]	EC50 [2] [nM]	Emax [1, 4] [%]	Emax [2, 5] [%]	% Emax cf. ACh, M1 ([1]; CHO cells stably expressing human M1, Emax relative to ACh, listed as 4-5 Isomer 2) [%]	% Emax cf. ACh, M4 ([2]; Emax relative to ACh, listed as 4-5 Isomer 2) [%]	% Emax cf. ACh, M1 ([1]; CHO cells stably expressing human M1, Emax relative to ACh, listed as 4-9 Isomer 2) [%]	% Emax cf. ACh, M4 ([2]; Emax relative to ACh, listed as 4-9 Isomer 2) [%]	Emax ([1]; read-out: % Emax cf. ACh, M1) [%]	Emax ([2]; read-out: % Emax cf. ACh, M4) [%]	EC50 ([1]; pEC50 M1, CHO cells stably expressing human M1) [nM]
CCOC(=O)N1C2CCC1CC(N1CC(CC(=O)N(CC)C(C)C)C1)C2 (mixture of isomers) [Example 1-2 Isomer mixture, Ethyl-3-(3-(2-(ethyl(isopropyl)amino)-2-oxoethyl)azetidin-1-yl)-8-azabicyclo[3.2.1]octane-8-carboxylate]	182	> 20000	–	–	–	–	–	–	100	7	–
CCOC(=O)N1C2CCC1CC(N1CC(OC(=O)N3CCCOCC3)C1)C2 (mixture of isomers) [Example 5-2 Isomer mixture, 1-(8-(Ethoxycarbonyl)-8-azabicyclo[3.2.1]octan-3-yl)azetidin-3-yl 1,4-oxazepane-4-carboxylate]	2240	> 20000	–	–	–	–	–	–	92	19	–
CCOC(=O)N1C2CCC1CC(N1CC(CC(=O)N3CCC34CCC4)C1)C2 (single isomer, unassigned) [Example 1-3 Isomer 2, Ethyl-3-(3-(2-oxo-2-(1-azaspiro[3.3]heptan-1-yl)ethyl)azetidin-1-yl)-8-azabicyclo[3.2.1]octane-8-carboxylate]	115	> 20000	–	–	–	–	–	–	103	19	–
CCOC(=O)N1CC2CCC1CC2N1CC(CC(=O)N2CCCOCC2)C1 (single isomer, unassigned) [Example 2-4 Isomer 1, Ethyl-5-(3-(2-(1,4-oxazepan-4-yl)-2-oxoethyl)azetidin-1-yl)-2-azabicyclo[2.2.2]octane-2-carboxylate]	1020	> 20000	58	9	–	–	–	–	–	–	–
CCOC(=O)N1C2CCCC1CC(N1CC(CC(=O)N(CC)CC)C1)C2 (single isomer, unassigned) [Example 3-1 Isomer 1, Ethyl-3-(3-(2-(diethylamino)-2-oxoethyl)azetidin-1-yl)-9-azabicyclo[3.3.1]nonane-9-carboxylate]	813	> 20000	–	–	–	–	–	–	106	23	–
CCOC(=O)N1C2CCCC1CC(N1CC(CC(=O)N3CCCC3)C1)C2 (single isomer, unassigned) [Example 3-2 Isomer 1, Ethyl-3-(3-(2-oxo-2-(pyrrolidin-1-yl)ethyl)azetidin-1-yl)-9-azabicyclo[3.3.1]nonane-9-carboxylate]	4790	933	–	–	–	–	–	–	68	68	–
CCOC(=O)N1CCC2(CC(N3CC(OC(=O)N4CCCOCC4)C3)C2)C1 (single isomer, unassigned) [Example 4-3 Isomer 2, 1-(6-(Ethoxycarbonyl)-6-azaspiro[3.4]octan-2-yl)azetidin-3-yl 1,4-oxazepane-4-carboxylate]	372	1020	104	46	–	–	–	–	–	–	–
CCOC(=O)N1CC2(CCC(N3CC(OC(=O)N(CC)CC)C3)C2)C1 (single isomer, unassigned) [Example 4-5 Isomer 2, Ethyl 6-(3-((diethylcarbamoyl)oxy)azetidin-1-yl)-2-azaspiro[3.4]octane-2-carboxylate]	1120	> 20000	–	–	44	10	–	–	–	–	–
CCOC(=O)N1C2CCCC1CC(N1CC(OC(=O)N(CC)CC)C1)C2 (single isomer, unassigned) [Example 7-1 Isomer 1, Ethyl 3-(3-((diethylcarbamoyl)oxy)azetidin-1-yl)-9-azabicyclo[3.3.1]nonane-9-carboxylate]	–	2290	–	–	–	–	–	–	88	29	1290
CCOC(=O)N1C2COCC1CC(N1CC(OC(=O)N3CCCCCC3)C1)C2 (single isomer, unassigned) [Example 8-1 Isomer 1, Ethyl 7-(3-((azepane-1-carbonyl)oxy)azetidin-1-yl)-3-oxa-9-azabicyclo[3.3.1]nonane-9-carboxylate]	257	1860	–	–	–	–	–	–	104	43	–
CCOC(=O)N1CC2(CC(N3CC(OC(=O)N(CC)CC)C3)C2)C1 [Example 4-1, Ethyl 6-(3-((diethylcarbamoyl)oxy)azetidin-1-yl)-2-azaspiro[3.3]heptane-2-carboxylate]	832	1700	83	57	–	–	–	–	–	–	–

Further lines, with some results ahead:

EC50 [1, 3] [nM]	EC50 [2] [nM]	Emax [1, 4] [%]	Emax [2, 5] [%]	% Emax cf. ACh, M1 ([1]; CHO cells stably expressing human M1, Emax relative to ACh, listed as 4-5 Isomer 2) [%]	% Emax cf. ACh, M4 ([2]; Emax relative to ACh, listed as 4-5 Isomer 2) [%]	% Emax cf. ACh, M1 ([1]; CHO cells stably expressing human M1, Emax relative to ACh, listed as 4-9 Isomer 2) [%]	% Emax cf. ACh, M4 ([2]; Emax relative to ACh, listed as 4-9 Isomer 2) [%]	Compound	Emax ([1]; read-out: % Emax cf. ACh, M1) [%]	Emax ([2]; read-out: % Emax cf. ACh, M4) [%]	EC50 ([1]; pEC50 M1, CHO cells stably expressing human M1) [nM]
631	1120	92	33	–	–	–	–	CCN(CC)C(=O)OC1CN(C2CCC3(C2)CN(C(=O)OC)C3)C1 (single isomer, unassigned) [Example 4-6 Isomer 1, Methyl 6-(3-((diethylcarbamoyl)oxy)azetidin-1-yl)-2-azaspiro[3.4]octane-2-carboxylate]	–	–	–
5620	389	–	–	–	–	84	85	CCOC(=O)N1CC2(CCC(N3CC(OC(=O)N4CCCOCC4)C3)C2)C1 (single isomer, unassigned) [Example 4-9 Isomer 2, 1-(2-(Ethoxycarbonyl)-2-azaspiro[3.4]octan-6-yl)azetidin-3-yl 1,4-oxazepane-4-carboxylate]	–	–	–
1050	> 20000	65	9	–	–	–	–	CCOC(=O)N1CC2CCC1CC2N1CC(OC(=O)N(CC)CC)C1 (single isomer, unassigned) [Example 6-1 Isomer 1, Ethyl 5-(3-((diethylcarbamoyl)oxy)azetidin-1-yl)-2-azabicyclo[2.2.2]octane-2-carboxylate]	–	–	–
6920	646	83	55	–	–	–	–	CCOC(=O)N1CC2CCC1CC2N1CC(OC(=O)N2CCCC2)C1 (single isomer, unassigned) [Example 6-2 Isomer 1, Ethyl 5-(3-((pyrrolidine-1-carbonyl)oxy)azetidin-1-yl)-2-azabicyclo[2.2.2]octane-2-carboxylate]	–	–	–
355	1620	92	35	–	–	–	–	CCOC(=O)N1CC2CCC1CC2N1CC(OC(=O)N2CCCCC2)C1 (single isomer, unassigned) [Example 6-3 Isomer 1, Ethyl 5-(3-((piperidine-1-carbonyl)oxy)azetidin-1-yl)-2-azabicyclo[2.2.2]octane-2-carboxylate]	–	–	–
813	> 20000	58	27	–	–	–	–	CCOC(=O)N1CC2CCC1CC2N1CC(OC(=O)N2CCCOCC2)C1 (single isomer, unassigned) [Example 6-5 Isomer 1, 1-(2-(Ethoxycarbonyl)-2-azabicyclo[2.2.2]octan-5-yl)azetidin-3-yl 1,4-oxazepane-4-carboxylate]	–	–	–
